These results are taken from US10660789B2, “1,4-dihydropyridine derivatives with HSP modulating activity” (Richter Gedeon NYRT., priority 2011, dated 2020).

In one assay the test system is Hsp70 promoter. The experiment in a line: Hsp70 promoter-YFP reporter in SHSY5Y cells, flow cytometry. Type of assay: cell-based, human. As to the method:
(§1) The Hsp co-inducing effect of the compounds on stress response was tested on B16 mouse melanoma and SHSY5Y human neuroblastoma cell lines stably transfected with Hsp promoter probing plasmids. This kind of promoter probing, using the promoter region of a given gene conjugated with fluorescent protein is used as a best and fastest test system for finding drugs which modulate the activity of the gene followed by the given promoter (Wyshocka et al., Mol. Cel. Biochem. 215:153-156, 2000).
(§2) Reporter plasmids, containing the Hsp70 and/or Hsp25 promoter conjugated to either YFP or GFP (yellow or green fluorescent protein), were stably transfected into the cells and the expression of YFP or GFP was followed by flow cytometry. Cells were either kept at 37° C. or exposed to heat shock at 42° C. for 1 hour followed by a 16 hour recovery period at 37° C. in the presence or absence of different concentrations of the test compound. After recovery the expression of YFP or GFP which is in straight correlation with the promoter activity of Hsp70 or Hsp27 genes was followed by measuring the fluorescence intensity of the cells by flow cytometry. Fluorescence intensity is in straight correlation with the amount of fluorescent protein (GFP or YFP) produced under the control of hsp promoter. The mean fluorescence intensity of YFP or GFP produced is shown as “Hsp promoter activity”.
The fluorescence intensity of YFP produced as a result of Hsp70 promoter activity was measured by flow cytometry.
(§3) Cells were homogenously distributed on 6-well plates in 1×10^5 cells/well density. B16-pHsp25-GFP and B16-pHsp70-YFP melanoma cells were grown in RPMI-1640 medium supplemented with 10% Fetal bovine serum (FBS), penicillin (200 units/ml), streptomycin (200 μg/ml) and 2 mM L-Glutamine. […] The changes in cells' fluorescence were detected using BD FACSCalibur flow cytometer.
In general terms: In flow cytometry, cells or beads pass a laser one at a time.

Another assay concerns Hsp25 promoter. Nature of the assay: Hsp25 promoter-GFP reporter in SHSY5Y cells, flow cytometry. Type of assay: cell-based, human. Particulars: FIG. 2. As to the method:
as §1, §2
The fluorescence intensity of GFP and YFP […].
Selectivity of the Hsp25 co-inducing activity of compound of Ex. 11 is shown on FIG. 3. […] The fluorescence intensity of GFP produced as a result of Hsp25 promoter activity was measured by flow cytometry.
as §3

A further assay concerns Hsp27. Nature of the assay: Other in vitro effects, Hsp27 (Table 3). Type of assay: cell-based. On the set-up: key: +: co-inducing activity; −: silencing activity; 0: with the experimental methods applied no other HSP modulating effects could be identified. As for the experimental part: as §2
Assay [1] has as its system APP mutant transgenic mice. Nature of the assay: Hippocampal histology after Morris water maze (cresyl violet, tau immunohistochemistry, Golgi staining). Type of assay: in vivo, mouse. As to the method: After the Morris water maze task the animals were deeply anesthetized, and transcardialy perfused with 10 ml 4° C. phosphate-buffered saline solution (PBS), followed by 30 ml of 4° C. paraformaldehyde solution (4% in phosphate buffer, pH 7.4). The brains were removed and postfixed for 24 h in the same fixative (4° C.) and subsequently cryoprotected in 30% sucrose solution for 72 h (4° C.). Brains were cut on a cryostat in 30 μm hippocampal coronal sections, and the slices were collected and stored at 4° C. in PBS for free floating immunohistochemistry.
Cresyl violet staining (Nissl staining) is used for neuronal tissue; the stain binds to the acidic components of the neuronal cytoplasm, showing the number of functioning neurons. Slides were stained into the filtered 1% crezyl violet solution for 5 min. and were dehydrated in 50% 70%, 95%, 2×100% ethanol for 1 minute each. After that slides were placed in xylene for another 10 minutes, and coversliped.
Neurofibrillary tangles (NTFs) are intraneuronal aggregates; these are abnormal accumulations associated with neurodegenerative diseases. To visualize the presence of these structures, we used for immunostaining human PHF-tau MAb(clone AT100) primer antibody at 1:800 dilution in PBS (pH 7.4).
The methodological steps in all three immunohistological techniques were the same. After quenching of endogenous peroxidase activity and a blocking step, the sections were incubated overnight at 4° C. with the primary antibody in the presence of 20% goat serum and Triton X-100 0.2%. On the following day, the sections were washed in PBS and incubated for 1 h at room temperature with the secondary biotinylated goat anti-mouse antibody (Vector Laboratories, Burlingame, Calif., USA, 1:400). […]
Dendritic spines change their density after a CNS injury, to visualize this effect, we made Golgi staining. […] The slides were analyzed with confocal light microscopy, we counted dendritic spines 100 μm tong on hippocampal pyramidal cells, and start point was 100 μm farther from the stoma. […]

In a further assay the test system is SKH-1 hairless mice. Nature of the assay: UVB induced skin edema in SKH-1 hairless mice. It counts as in vivo, mouse. As for the experimental part:
To evaluate the effects of systemic administration of Ex. 23 on UVB induced edema 16 SKH-1 hairless mice were divided into two groups of 8 animals each. Group 1 mice (Control) were exposed to 230 mJ/cm^2 UVB consecutively for 2 days (a total cumulative UVB dose of 460 mJ/cm^2), which evoked edema as described by Athar et al. (Tox. Appl. Pharmacol. 195: 370-378, 2004). Group 2 mice received Ex 23. (10 mg/kg) intraperitoneally 30 min before the first UV treatment. The administration of the compound Ex. 23 was repeated 24 and 48 hours later. UVB-induced skin edema was monitored by measuring the increase in dorsal skin thickness using an ultrasound skin scanner (22 MHz).

Where a name gives a salt, the structure may show the parent alone.

With `COC(=O)C1=C(CCN(C)C)N(C)C(CCN(C)C)=C(C(=O)OC)C1c1ccc(C(F)(F)F)cc1` [Example 23, Dimethyl 4-(4-trifuoromethylphenyl)-2,6-bis-(2-dimethylaminoethyl)-1-methyl-1,4-dihydropyridine-3,5-dicarboxylate dihydrochloride], the “induction of Hsp70 gene activity” value with Hsp70 promoter (20 μM, SHSY5Y cells at 42° C., FIG. 1) is on record as “approximately 20 times”. Also, in the assay with Hsp70 promoter (SHSY5Y cells, 37° C., no heat stress), the “activity of the promoter of the hsp70 gene at 37° C.” value is “does not affect the activity of the promoter of the hsp70 gene at 37 °C”. Moreover, the “increase in HSP70 expression” value with Hsp70 promoter (SHSY5Y cells, relative to cells treated at 42° C. without the compound, FIG. 2) was determined as 23 fold. Moreover, the “effect on the expression of Hsp25” value in the assay on Hsp25 promoter is on record as “no effect on the expression of Hsp25”. For the same compound, in the assay with Hsp27, the “Other in vitro effects: Hsp27” value was “Hsp27 0”. Besides, the “Golgi staining, dendritic spine density” value in assay [1] (hippocampal pyramidal cells) is given as “the spine density was the highest in the APP mutant compound of Ex. 23 treated group”. Besides, the tau-immunohistochemistry entry in assay [1] (hippocampus, APP mutant mice) is listed as “could inhibit the taupathology”. In assay [1] (hippocampus, versus negative control group), the “cresyl-violet staining, alive neurons” value is given as “more alive neurons”. In addition, the “UVB induced skin edema (increase in skin thickness)” value with SKH-1 hairless mice (10 mg/kg i.p. 30 min before first UV, repeated 24 and 48 hours later, FIG. 7) was “substantially protected against edema formation”. The In vivo efficacy result in the assay on SKH-1 hairless mice (model in which efficacy was shown) is listed as “UVB protection”.
